Results: US6818215B2, “Antibodies to senescent cell-derived inhibiters of DNA synthesis” (priority 1991, dated 2004)

Legend:
C33A (HTB 31) = assay: DNA synthesis inhibition by SDI-1 in pRb-deficient cells; format: cell-based, human
Experimental: Because SDI-1 inhibits the protein kinases that phosphorylate pRb, and unphosphorylated pRb is believed to negatively regulate E2F activity (Nevins, J. R., Science 258:424-429 (1992)), pRb is presumed to be a central mediator of SDI-1's effects. Since A31 cells express a normal Rb gene, the ability of SDI-1 to inhibit E2F activity, and possibly growth, in tumor cells that lack a functional pRb was tested. […] C33A cells were obtained from the American Type Culture Collection (Rockville, Md.).
By contrast, C33A and A31 cells were equally sensitive to SDI-1 inhibition of E2F activity. Thus, CMV-SDI-1 reduced DHFR-, cdc2- and SV/E2F-driven CAT activity to approximately equal extents in C33A and A31 cells. As expected CMV-SDI-1 had no effect on SV/E2Fm-driven CAT activity in either cell line.

[1] = system: B16 murine melanoma cell line; assay: Lipofectamine liposome-mediated delivery of SDI-1 protein; format: cell-based
[2] = system: Human umbilical vein endothelial cells; assay: GST-SDI-1 fusion protein, thymidine incorporation; format: cell-based
Experimental: As indicated above, SDI-1 has the capacity to suppress the proliferation of tumor cells. […] In the experiment, 5×10^3 cells were plated overnight at 37° C. (only for adherent cells) and then incubated with the SDI fusion protein. After 48 hours at 37° C., cells were pulsed with thymidine for 24 hours and then harvested. The results of this experiment are shown in Table 8; the thymidine incorporation by untreated cells was expressed as 100%. all determinations were made in quadruplicate.

WI38 immortal cell line = assay: Transient transfection of SDI-1, inhibition of DNA synthesis; format: cell-based, human
From the text: (§1) This provides further evidence that SDI-1 behaves like the inhibitor previously detected in senescent cells.

HeLa cells = assay: as above; format: cell-based, human
From the text: as §1

[3] = system: neonatal foreskin cell line (CSC303); assay: as above; format: cell-based, human
From the text: as §1

[4] = system: E2F/p107/cdk/cyclin complexes; assay: Effect of recombinant SDI-1 on DNA-protein complexes at an E2F binding site in nuclear extracts; format: biochemical; details: extracts from cells in late G1
From the text: E2F binding sites are occupied by protein complexes, whose composition—at least by in vitro analyses—depend on the cellular growth state and stage of the cell cycle (Chellappan, S. P. et al., Cell 65:1053-1061 (1991); Nevins, J. R., Science 258:424-429 (1992); Farnham, P. J. et al., Biochim. Biophys. Acta 1155:125-131 (1993)). To determine which if any of these complexes might be a target for SDI-1, the effect of recombinant SDI-1 protein on DNA-protein complexes that associate with an E2F binding site in vitro was determined
E2F-1 is induced a few hours prior to S phase (Shan, B. et al., Molec. Cell. Biol. 12:5620-5631 (1992); Slansky, J. E. et al., Molec. Cell. Biol. 13:1610-1618 (1993); Dimri, G. P et al., J. Biol. Chem. 269:16180-16186 (1994)) at about which time nuclear extracts from cells in mid to late G1 contain increased levels of free E2F, E2F in association with pRb, and E2F in association with p107, cdk2 and cyclin E (mid-late G1-early S). Of the complexes present in extracts from cells in late G1, only the E2F/p107/cdk/cyclin complexes were disrupted by recombinant SDI-1.

c-fos promoter = assay: CAT reporter transcription assay, fos-CAT; format: cell-based; details: SDI-1 2.0 μg
Experimental: (§2) The effect of the human SDI-1 on transcription driven by two E2F-responsive promoters was determined. Proliferating A31 cells were transfected with an SDI-1 expression vector in which the SDI-1 cDNA was driven by the strong constitutive cytomegalovirus early promoter (CMV) together with a reporter vector in which the chloramphenicol acetyltransferase (CAT) gene was driven by either the hamster dihydrofolate reductase (DHFR) promoter or the human cdc2 promoter (cdc2-CAT). A31 cells are Balb/c murine 3T3 fibroblasts whose origin and growth properties have been described (Lu, K. et al., Molec. Cell. Biol. 9:3411-3417 (1989); Dimri, G. P et al., J. Biol. Chem. 269:16180-16186 (1994), herein incorporated by reference). Cells were transfected with 2 μg of expression vectors, reporters vectors (for transactivation) and the CMV-β-gal identification/normalization vector using Lipofectamine (Gibco-BRL), as described by Dimri, G. P et al. (J. Biol. Chem. 269:16180-16186 (1994), herein incorporated by reference), The vector backbone was added to the mixture as needed to equalize the amount of transfected DNA. Seventy-two hours later, the cells were lysed and assayed for chloramphenicol acetyl transferase (CAT) and β-galactosidase activity. Both DHFR and cdc2 were expressed by proliferating cells, largely due to E2F-mediated transcription that is dependent on E2F binding sites in the 5′ regulatory regions of these genes (Slansky, J. E. et al., Molec. Cell. Biol. 13:1610-1618 (1993); Dalton, S., EMBO J. 11:1797-1804 (1992)).
In sharp contrast to the response of the DHFR and cdc2 promoters, CMV-SDI-1 had little or no effect on reporter activity driven by either the SV 40 early promoter (SV-CAT or the c-fos promoter (fos-CAT) (Table 16). Neither the SV40 early genes nor c-fos has been reported to be E2F-responsive.

[5] = system: SV40 early promoter with three E2F binding sites (SV/E2F); assay: CAT reporter transcription assay, SV/E2F-CAT; format: cell-based; details: A31 cells
Experimental: as §2, with “Seventy-two hours later, the cells were lysed and assayed for chloramphenicol acetyl transferase (CAT) and β-galactosidase activity. Both DHFR and cdc2 were expressed by proliferating cells, largely due to E2F-mediated transcription that is dependent on E2F binding sites in the 5′ regulatory regions of these genes (Slansky, J. E. et al., Molec. Cell. Biol. 13:1610-1618 (1993); Dalton, S., EMBO J. 11:1797-1804 (1992)).” left out
To more critically ascertain whether the inhibition of transcription by SDI-1 was E2F-dependent, three E2F binding sites were inserted into the SV40 early promoter and the effect of CMV-SDI-1 on CAT activity driven by this modified promoter (SV/E2F) was determined. […]

SDI-1: senescent cell derived inhibitor of DNA synthesis, 164 amino acid protein, SEQ ID NO:2
inhibition (antiproliferative effect) (C33A (HTB 31)): 40-50% | 3H-Tdr Uptake ([1]; 48 hr): 2134 ± 294 | Cell Number ([1]; 48 hr): 7820 ± 141 | Ratio of SDI-1 Treated to BSA Treated, 3H-Tdr Uptake ([1]; 48 hr): 0.34 | Ratio of SDI-1 Treated to BSA Treated, Cell No. ([1]; 48 hr): 0.29 | detection of SDI-1 in cells ([1]; 72 hours after liposome treatment): not detectable | 3H-Tdr Uptake ([1]; 72 hr): 8765 ± 533 | Cell Number ([1]; 72 hr): 23710 ± 1485 | Ratio of SDI-1 Treated to BSA Treated, 3H-Tdr Uptake ([1]; 72 hr): 0.3 | Ratio of SDI-1 Treated to BSA Treated, Cell No. ([1]; 72 hr): 0.28 | fraction of cells with SDI-1 detected in the nuclei ([1]; after 3-4 hours): ½ | fraction of cells with SDI-1 detected in the nuclei ([1]; after 9 hours): ⅓ | Relative Cell (% of Control) ([2]; 30 μg/ml): 5 ± 1 % of Control | Relative Cell (% of Control) ([2]; 50 μg/ml): 2 ± 1 % of Control | inhibition (DNA synthesis) (WI38 immortal cell line): 40-50% | inhibition (DNA synthesis) (HeLa cells): < 20% | inhibition (DNA synthesis) [3]: 40-50% | effect on E2F/p107/cdk/cyclin complexes [4]: disrupted | % Activity (c-fos promoter): 96% | % Inhibition (c-fos promoter): 4% | Normalized CAT Activity (c-fos promoter): 16273 counts per minute | Transcription (Normalized) % Activity [5]: 50% | Transcription (Normalized) % Inhibition [5]: 50%
